Where a name gives a salt, the structure may show the parent alone. Where only a bound is given, the exact number is not on record here.

Assay type in all cases: physicochemical
Data set [1] in a line: Solubilization enhancement with PVP K-30 and citric acid (Preparation C). As to the method:
Approximately 1.0, 1.5, 1.6, 2.5 and 3.0 grams of amorphous paroxetine HCl were weighed into five 25-ml volumetric flasks. Ten milliliters of an ethanol-water (20% v/v ethanol) mixture containing 0.25 grams of polyvinyl pyrrolidone (PVP) K-30 and 0.02 grams of citric acid anhydrous were added into each of the five flasks and the flasks were sonicated for 30 minutes. Only the solution in flask 1 became clear while only part of the paroxetine HCl in flasks 2 through 5 dissolved.

The nature of data set [2]: Solubility in aqueous alcohol (Preparation B). As for the experimental part:
A. Exactly two milliliters of ethanol were added to each of the nine flasks from Preparation A and the flasks shaken gently by hand. […] B. Approximately 250, 320, 400, 570 and 1120 mg of amorphous paroxetine HCl were weighed into five 25-ml volumetric flasks labeled 1 through 5 respectively. Ten milliliters of ethanol-water mixture containing 20% v/v ethanol were pipetted into each of the flasks and the flasks were stoppered. The flasks were then placed in a sonicator (Branson 1210, Danbury, Conn.) and sonicated for ten minutes taking care to see that there was no heating.

A short description of data set [3]: Determination of solubility in deionized water (Preparation A). To be noted: room temperature, sonicated 10 min, still clear after 24 hours. As for the experimental part: Approximately 45, 100, 200, 300, 400, 500, 510, 750 and 1000 mg of amorphous paroxetine HCl were weighed into nine 25-ml volumetric flasks labeled 1 through 9 respectively. Ten milliliters of deionized water were pipetted into each of the flasks and the flasks were stoppered. The flasks were then placed in a sonicator (Branson 1210, Danbury, Conn.) and sonicated for ten minutes taking care to see that there was no heating.

By solubility is commonly meant the dissolved amount per volume that the medium holds. As to `Fc1ccc([C@@H]2CCNC[C@H]2COc2ccc3c(c2)OCO3)cc1` [Paroxetine HCl], in data set [1] (60 °C, aqueous with cosolvent or surfactant or cyclodextrin, thermodynamic from solid), the solubility at 30 min was above 300 mg/mL.

Regarding `Cl.Fc1ccc([C@@H]2CCNC[C@H]2COc2ccc3c(c2)OCO3)cc1` [amorphous paroxetine HCl], the appearance of solution result in data set [2] (1120 mg in 10 ml ethanol-water 20% v/v ethanol, sonicated 10 min (flask 5)) is on record as “clear solution with a slight precipitate”; in data set [2] (250, 320, 400, 570 mg in 10 ml ethanol-water 20% v/v ethanol, sonicated 10 min (flasks 1-4)), “clear solutions”; in data set [1] (1.0 g in 10 ml 20% v/v ethanol with 0.25 g PVP K-30 and 0.02 g citric acid, sonicated 30 min (flask 1)), “became clear”. Also, the “amount that could be dissolved in hydroalcoholic solvent mixture” value in data set [2] (about 15% ethanol (10 ml water + 2 ml ethanol)) is reported as “at least 1 gram”. The maximum solubility result in data set [3] (HCl) is given as “about 75 mg/ml”; in data set [3] (listed as amorphous form of paroxetine HCl), “up to 75 mg/ml”. For the same molecule, the “appearance of solution upon heating” value in data set [1] (1.0-3.0 g in 10 ml 20% v/v ethanol with 0.25 g PVP K-30 and 0.02 g citric acid, heated to about 60° C.) is on record as “all the solutions became clear”. Moreover, in data set [1] (1.5, 1.6, 2.5, 3.0 g in 10 ml 20% v/v ethanol with 0.25 g PVP K-30 and 0.02 g citric acid, sonicated 30 min (flasks 2-5)), the extent of dissolution result was “only part”.

The values above are taken from US6660298B1, “Paroxetine tablets and capsules” (priority 2000, dated 2003).
